Experimental data taken from article PMC9705314, “Characterization of a new potent and long-lasting single chain peptide agonist of RXFP1 in cells and in vivo translational models” (Scientific Reports, 2022).
Where two headings read alike, the source gives them in different places. *1 amine or outer side, *2 acyl side, *3 side chain or, on linkers, in order; H or OH if unused. Where a SMILES comes first, the peptide text is derived from it. Side-chain parts run from the residue outwards. [ ]: non-standard residue; d: D form. The star is where a group is joined. γGlu = O=C(O)[C@H](CCC(=O)[*:2])N[*:1]; Stearoyl = CCCCCCCCCCCCCCCCCC(=O)*; Nle = CCCC[C@H](N)C(=O)O; AEEA = NCCOCCOCC(=O)O; Aib = CC(C)(N)C(=O)O

Assay: Pharmacokinetics in Goettingen minipigs
Assay type: in vivo, minipig
Conditions: for CL / t1/2 / AUCext / F / AUC / C0 / Vd / Cmax / Tmax: female Göttingen minipig; for CL / t1/2 / AUC / C0 / Vd / Cmax / Tmax: LC-MS; for CL / t1/2 / AUC / C0 / Vd / Cmax: non-compartmental analysis; for AUC / C0 / Vd / Cmax / Tmax: 1 mg/kg; for Vd: read-out: Vss
Description: Goettingen minipigs (Ellegaard Göttingen Minipigs A/S, Soroe Landevej 302, DK-4261 Dalmose, Denmark) were dosed with the study peptide at a dose of 1 mg/kg IV and SC routes (0.1 mg/mL). Blood samples were collected from individual animals at the following time points: 0.083, 0.25, 0.5, 2, 4, 6, 8, 24, 48, 72, 96 and 168 h (IV route) and 0.25, 0.5, 2, 4, 6, 8, 24, 48, 72, 96 and 168 h (SC route). All samples, collected into K3-EDTA tubes, were centrifuged and plasma was harvested and stored at − 80 °C until analysis. Three hundred μL of 1% tri-fluoro acetic acid in acetonitrile containing 10 ng/mL irbesartan as internal standard were added to 30 μL of standard, QC and PK study samples to precipitate the plasma proteins. Each sample was vortexed and centrifuged, for 5 min, at 4000 rpm and at 4 °C. Two hundred and fifty microliters of supernatant were collected and evaporated under nitrogen at 37 °C in LoBIND 96 well plates. 150 µL of water/acetonitrile (90/10, v/v) were added to dissolve the evaporates and 10 µL of the extracted plasma samples were injected onto the column. Chromatographic separation was performed on a Thermo Vanquish (Thermo Scientific) chromatography system using a UPLC HSS T3, (50 mm × 2.1 mm I.D., 1.8 μm, Waters Corporation) with a flow rate of 0.600 mL/min at 40 °C and a two-solvent linear gradient system. Solvents A (water) and B (acetonitrile) contained both 0.1% formic acid. […] The Vanquish was coupled to an Orbitrap QExactive™ mass spectrometer (Thermo Scientific) in positive mode. Quantitation was performed in full scan. The optimized source parameters were as follows: ion spray voltage 3.8 kV, sheath gas flow 70 a.u., aux gas flow 10 a.u., aux T 300 °C, capillary T 250 °C, S-lens RF level 60%. Full MS parameters were as follows: mass range 150–2000, AGC target 1 × 10^6, max injection time 250 ms, resolution 70,000 (FWHM @ 200 m/z). Data processing was performed using Xcalibur 3.0 (Thermo Scientific). Ion current of the [M + 5H]5 + of the SA10SC-RLX was extracted with 5 ppm window for quantitation (814.47219 m/z). A calibration curve with 9 standard points was prepared freshly on the day of analysis by spiking appropriate amounts of an intermediate working standard solution into blank rat plasma and ranged from 10 to 4000 ng/mL (2.46–983 nM). Three QC samples, each at four concentration levels from […] to 3200 ng/mL (7.86–786 nM), were used for all analyses. Calibration curves were prepared by plotting the analyte to internal standard peak area ratio versus concentration. Calibration standards were fit by linear regression with 1/x^2 weighting. QC samples (n = 3) were used at six concentration levels. Accepted calibration curve contained minimum 7 concentration levels within ± 20% of nominal (± 25% at the Lower Limit of Quantitation). Accepted QCs were within ± 20% of nominal. PK parameters were calculated using a non-compartmental analysis with Phoenix WinNonLin version 6.4 software.

[1] = female, Göttingen, minipig, plasma, iv, IV 1 mg/kg, animal 1
[2] = female, Göttingen, minipig, plasma, iv, IV 1 mg/kg, animal 2
[3] = female, Göttingen, minipig, plasma, sc, SC 1 mg/kg, animal 3
[4] = female, Göttingen, minipig, plasma, sc, SC 1 mg/kg, animal 4

## CCCCCCCCCCCCCCCCCC(=O)N[C@@H](CCC(=O)N[C@@H](CCC(=O)N[C@@H](CCC(=O)NCCOCCOCC(=O)NCCOCCOCC(=O)NCCOCCOCC(=O)NCCCC[C@H](NC(=O)[C@H](CCCCNC(C)=O)NC(=O)[C@H](CCCCN)NC(=O)[C@H](CCCNC(=N)N)NC(=O)C(C)(C)NC(=O)[C@H](CO)NC(=O)[C@H](Cc1c[nH]c2ccccc12)NC(=O)[C@@H](NC(=O)[C@H](CO)NC(=O)[C@H](CCCC)NC(=O)CNC(=O)[C@H](CCC(=O)O)NC(=O)C(C)(C)NC(=O)C(C)(C)NC(=O)[C@@H](NC(=O)[C@H](CCCCNC(C)=O)NC(=O)[C@H](C)NC(=O)[C@H](CCCNC(=N)N)NC(=O)[C@@H](NC(=O)[C@H](CCCCN)NC(=O)[C@H](CCC(=O)O)NC(=O)[C@H](CCCNC(=N)N)NC(=O)CNC(=O)[C@H](CCC(=O)O)NC(=O)[C@H](CC(C)C)NC(C)=O)C(C)C)[C@@H](C)CC)[C@@H](C)O)C(N)=O)C(=O)O)C(=O)O)C(=O)O [SA10SC-RLX] (Ac-LEGREKVRAK(Ac)I[Aib][Aib]EG[Nle]STWS[Aib]RKK(Ac)K([AEEA-AEEA-AEEA-γGlu-γGlu-γGlu-Stearoyl])-NH2)
IV 1 mg/kg, plasma, animal 1
  CL: 0.130 mL/min/kg
  t1/2: 7.06 h
  AUCext: 0.462%
IV 1 mg/kg, plasma, animal 2
  CL: 0.151 mL/min/kg
  t1/2: 6.92 h
  AUCext: 0.479%
SC 1 mg/kg vs IV 1 mg/kg, animal 3
  F: 81%
SC 1 mg/kg vs IV 1 mg/kg, animal 4
  F: 56%
SC 1 mg/kg, plasma, animal 3
  AUCext: 3.16%
SC 1 mg/kg, plasma, animal 4
  AUCext: 1.83%
[1]
  AUC: 31.9 µM·h
  C0: 9360 nM
[2]
  AUC: 27.1 µM·h
  C0: 8570 nM
female, Göttingen, minipig, plasma, iv, IV 1 mg/kg, plasma, animal 1
  Vd: 0.0439 L/kg
female, Göttingen, minipig, plasma, iv, IV 1 mg/kg, plasma, animal 2
  Vd: 0.0497 L/kg
[3]
  AUC: 23.8 µM·h
  Cmax: 1420 nM
  Tmax: 6 h
[4]
  AUC: 16.6 µM·h
  Cmax: 1450 nM
  Tmax: 4 h
female, Göttingen, minipig, plasma, minipigs, IV 1 mg/kg, n = 2
  clearance: 0.14 mL/min/kg
female, Göttingen, minipig, plasma, minipigs, SC 1 mg/kg vs IV 1 mg/kg, read-out: bioavailability (ratio of scAUC/ivAUC)
  bioavailability: ~70%
female, Göttingen, minipig, plasma, minipigs, SC 1 mg/kg, read-out: plasma concentration after 12 h
  level at time molar at 12 h: ~1000 nM
minipigs, IV 1 mg/kg, n = 2
  apparent terminal half-life: 7 h
